Values joined by “and” are separate entries in the source; they are usually repeats but may differ in a detail not shown here. Identical values can stand only once.

We go through one compound from patent US20210379062A1, “The use of a H3R inverse agonist for the treatment of excessive daytime sleepiness associated with parkinson's disease (PD)” (Novartis AG, priority 2018, published 2021).

The target in series [1] is H3 receptors in the brain (Homo sapiens, UniProt Q9Y5N1). Briefly: PET brain H3 receptor occupancy study with [11C]MK-8278 in healthy volunteers. The format is in vivo. How it is done: An open-label, adaptive design study was performed in healthy volunteers to characterize regional brain H3 receptor occupancy following single dose of Compound (I) by using positron emission tomography (PET) with the radioligand [^11C]MK-8278 (Van Laere, K. J. et al, Journal of Nuclear Medicine, 2014, 55: 65-72). The primary objective of this study was to evaluate the plasma concentration of Compound (I) leading to 50% occupancy of H3 receptors in the brain (EC50). A total of 6 subjects were enrolled into the study and were scanned in three cohorts of two subjects each. Prior to dosing with Compound (I), each subject underwent a baseline PET scan to assess binding of [^11C]MK-8278 to H3R in the absence of Compound (I). Subjects subsequently received single oral doses of Compound (I) and then underwent two post-dose PET scans. Subjects of cohort 1 received a single oral dose of 300 mg of Compound (I), corresponding to the single dose maximum tolerated dose (MTD) determined from the Phase I study after single oral dose of Compound (I). These subjects underwent two post-dose PET scans, at 3 hours and 27 hours after dosing. The doses and scan timings for the subsequent cohorts were selected based on interim data analyses following the completion of the preceding cohort(s). Subjects of cohorts 2 and 3 received a single oral dose of 10 mg and 0.3 mg, respectively. Compound (I) was administered as capsules in cohorts 1 and 2, whereas cohort 3 received Compound (I) as an oral solution. […] The first post-dose PET scan for cohorts 2 and 3 was acquired at 3 hours and the second one at 27 hours and 8 hours after dosing, respectively.
The binding was consistent with both the known distribution of H3 receptors and previous [^11C]MK-8278 data (Van Laere, K. J. et al, Journal of Nuclear Medicine, 2014, 55: 65-72). The kinetics of [^11C]MK-8278 in brain were analyzed using different modelling approaches, such as the one- and two-tissue compartment (1TC, 2TC) models, multilinear analysis (MA1; Ichise, M. et al., Journal of Cerebral Blood Flow and Metabolism, 2002, 22: 1271-1281) and the Logan graphical method (Logan, J. et al., Journal of Cerebral Blood Flow and Metabolism, 1990, 10(5): 740-747). All methods produced similar results, but the 2TC model was the most appropriate to derive regional VT values. Tissue time-activity curves (TACs) were generated for all scans and were characterized by a peak at around 5-15 minutes post-injection, followed by washout. After administration of Compound (I), regional binding of [^11C]MK-8278 was reduced compared to baseline scans, indicating engagement of Compound (I) with the target. The occupancy plot method proposed by Lassen (Lassen, N. A. et al., Journal of Cerebral Blood Flow and Metabolism, 1995, 15 (1): 152-165; Cunningham, V. J. et al., Journal of Cerebral Blood Flow and Metabolism, 2010, 30 (1): 46-50) was applied to estimate whole-brain H3 receptor occupancy for each post-dose PET scan. This method also provided consistent estimates of the non-displaceable component (VND).
The relationship between plasma concentration of Compound (I) and H3 receptor occupancy was characterized plotting occupancy estimates against corresponding plasma concentration data (measured at the start of each post-dose PET scan). The RO versus concentration was analyzed using the Emax model:
Where RO=Receptor occupancy; Emax=maximum receptor occupancy; Cp=plasma concentration of Compound (I) during PET scan; EC50=plasma concentration leading to 50% of maximum change in RO.

Series [2] in a line: PK model (two-compartment, NONMEM) fitted to Phase I SAD/MAD concentrations. The series is classed as in vivo, human. Here is the method: PK data (drug concentration over time) from Part 1 and Part 2 of the Phase I study were used in the development of the model: • 1) Part 1 is the Single Ascending Dose part; 8 different cohorts were used, with each cohort composed of 6 active subjects and 2 placebo subjects. The dose amounts used in the 8 cohorts were 0.3, 1, 3, 10, 30, 100, 300 and 800 mg. Dosing was performed at time equal to 0 hours. Additional data from the Part 3 of the Phase I study (Mechanistic biomarker study, 100 mg single dose) were lumped with this group. • 2) Part 2 is the Multiple Ascending Dose part; 4 different cohorts were used, with each cohort composed of 9 active subjects and 3 placebo subjects. The dose amounts used in the 4 cohorts were 10, 30, 50 and 100 mg. Dosing was performed once a day (in the morning) at times equal to 0, 2, 3, 4, 5, 6, 7, 8, 9, 10, 11, 12, 13, 14, 15 days.
The analysis was performed using NONMEM VII version 3 (Icon Development Solutions, Ellicott City, Md., USA), utilizing the MODESIM high performance computing environment. Pirana software was used for model editing and model submission to the cluster for running. All model building was performed using the first order conditional estimation with interaction (FOCEi) method.
A two-compartment model with combined zeroth-order and first-order absorption was used to fit the Compound (I) concentrations. The disposition kinetics were modeled using a parameterization involving apparent oral clearance (CL/F), apparent central volume (Vc/F), apparent inter-compartment clearance (Q/F), and apparent peripheral volume (Vp/F). The duration of zero-order absorption (D), a first order absorption rate constant (Ka) and an absorption delay parameter (Lag) were used to characterize the absorption process.
Between-subject variability in pharmacokinetic parameters Vc/F, CL/F, Vp/F and Ka was modeled using multiplicative exponential random effects of the form:
Residual variability was modeled using a proportional error model: […]

H3 receptors in the brain, sequence (Q9Y5N1 whole entry): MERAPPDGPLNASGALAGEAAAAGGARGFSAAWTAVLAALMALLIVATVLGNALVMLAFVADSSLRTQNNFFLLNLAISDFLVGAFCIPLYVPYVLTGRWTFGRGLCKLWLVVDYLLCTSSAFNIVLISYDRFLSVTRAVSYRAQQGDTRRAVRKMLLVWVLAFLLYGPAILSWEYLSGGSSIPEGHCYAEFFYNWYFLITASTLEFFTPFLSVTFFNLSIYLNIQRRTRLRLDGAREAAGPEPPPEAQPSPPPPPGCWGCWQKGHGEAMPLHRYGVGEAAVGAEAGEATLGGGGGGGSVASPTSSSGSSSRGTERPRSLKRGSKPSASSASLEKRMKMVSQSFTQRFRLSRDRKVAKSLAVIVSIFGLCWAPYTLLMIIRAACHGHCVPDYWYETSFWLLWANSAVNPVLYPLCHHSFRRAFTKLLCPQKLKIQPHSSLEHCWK

In the case of `Cn1nc(N2CCC(OC(=O)N3CCN(C4CCC4)CC3)CC2)ccc1=O` [Compound (I), 1-(1-methyl-6-oxo-1,6-dihydropyridazin-3-yl)piperidin-4-yl 4-cyclobutylpiperazine-1-carboxylate], the “Emax (maximum receptor occupancy)” value in series [1] (Emax model of PK-RO relationship) is 96.1% and 96.16%. In series [1] (first cohort, single oral dose 300 mg, 3 hours post-dose, both subjects), the “Receptor occupancy (RO)” value is on record as “higher than 95%”. Besides, the “Receptor occupancy (RO)” value in series [1] (first cohort, single oral dose 300 mg, 27 hours post-dose, both subjects) is listed as “higher than 95%”. Also, the EC50 in series [1] (read-out: EC50 (plasma concentration leading to 50% occupancy of H3 receptors), Emax model of PK-RO relationship, plasma concentration) was 0.772 nM. The “Receptor occupancy (RO)” value in series [1] (second cohort, single oral dose 10 mg, 3 hours post dose) is recorded as “similarly high”. Besides, in series [1] (second cohort, single oral dose 10 mg, 27 hours post dose), the “Receptor occupancy (RO)” value is listed as “decreased”. Further, the “Receptor occupancy (RO)” value in series [1] (third cohort, single oral dose 0.3 mg, 3 h and 8 h post dose) was “generally lower than in the other cohorts”. Besides, in series [2] (PK model estimate), the “CL/F (apparent oral clearance)” value was 22.8 L/h, the “D (duration of zero-order absorption)” value is 0.108 h, the “Ka (first-order absorption rate constant)” value was 2.44 h⁻¹ and the “Lag (absorption delay)” value is 0.214 h. Moreover, in series [2] (PK model estimate), the “Q/F (apparent inter-compartment clearance)” value is 1.26 L/h, the “Residual Unexplained Variability” value is reported as 34.8%, the “VC/F (apparent central volume)” value is 121 L and the “VP/F (apparent peripheral volume)” value was 18.4 L. In series [2] (between-subject variability), the “Omega CL/F” value was determined as 40.37 % CV, the “Omega Ka” value is 145 % CV, the “Omega Vc/F” value worked out at 23.71 % CV and the “Omega Vp/F” value was found to be 46.48 % CV.
